Test results taken from ChEMBL document CHEMBL5500330, “Novel thiazolidin-4-one benzenesulfonamide hybrids as PPARγ agonists: Design, synthesis and in vivo anti-diabetic evaluation” (Eur J Med Chem, 2024).

Assays:
[1] = target: T1, Peroxisome proliferator-activated receptor delta (Homo sapiens, UniProt Q03181); experiment: Agonist activity at human PPAR delta by luciferase reporter gene assay
T1 sequence (Q03181 whole entry): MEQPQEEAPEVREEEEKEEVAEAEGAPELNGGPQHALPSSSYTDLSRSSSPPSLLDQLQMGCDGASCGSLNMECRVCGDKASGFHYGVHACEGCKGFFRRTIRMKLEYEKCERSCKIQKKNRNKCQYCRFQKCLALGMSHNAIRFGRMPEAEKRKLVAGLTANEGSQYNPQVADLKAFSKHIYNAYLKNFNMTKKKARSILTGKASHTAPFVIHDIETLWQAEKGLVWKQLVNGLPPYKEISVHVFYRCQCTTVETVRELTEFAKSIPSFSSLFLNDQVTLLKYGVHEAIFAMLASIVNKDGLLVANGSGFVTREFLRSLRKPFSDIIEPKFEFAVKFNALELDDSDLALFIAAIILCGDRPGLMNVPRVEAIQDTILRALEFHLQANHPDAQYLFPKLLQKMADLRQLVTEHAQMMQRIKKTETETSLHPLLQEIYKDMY

[2] = Acute toxicity in male Albino mouse assessed as mortality at upto 2000 mg/kg, po measured upto 7 days; type: organism-based; details: in vivo, 168 h, time < 7 day
[3] = target: T2, Peroxisome proliferator-activated receptor gamma (Homo sapiens, UniProt P37231); experiment: Agonist activity at human PPAR gamma by luciferase reporter gene assay
T2 sequence (P37231 whole entry): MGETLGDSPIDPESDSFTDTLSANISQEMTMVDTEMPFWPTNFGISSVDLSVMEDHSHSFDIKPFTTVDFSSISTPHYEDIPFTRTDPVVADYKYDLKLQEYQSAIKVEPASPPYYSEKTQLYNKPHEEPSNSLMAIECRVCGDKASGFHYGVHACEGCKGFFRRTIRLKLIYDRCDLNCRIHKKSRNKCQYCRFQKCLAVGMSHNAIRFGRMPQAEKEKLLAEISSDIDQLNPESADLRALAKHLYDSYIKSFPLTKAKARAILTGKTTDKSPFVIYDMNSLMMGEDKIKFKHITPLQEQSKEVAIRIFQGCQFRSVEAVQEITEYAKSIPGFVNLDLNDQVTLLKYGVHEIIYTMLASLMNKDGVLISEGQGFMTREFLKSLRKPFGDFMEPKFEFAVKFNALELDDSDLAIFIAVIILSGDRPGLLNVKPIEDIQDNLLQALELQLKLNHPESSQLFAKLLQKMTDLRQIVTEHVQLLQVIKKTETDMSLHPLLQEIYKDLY

[4] = target: T3, Peroxisome proliferator-activated receptor alpha (Homo sapiens, UniProt Q07869); experiment: Agonist activity at human PPAR alpha by luciferase reporter gene assay
T3 sequence (Q07869 whole entry): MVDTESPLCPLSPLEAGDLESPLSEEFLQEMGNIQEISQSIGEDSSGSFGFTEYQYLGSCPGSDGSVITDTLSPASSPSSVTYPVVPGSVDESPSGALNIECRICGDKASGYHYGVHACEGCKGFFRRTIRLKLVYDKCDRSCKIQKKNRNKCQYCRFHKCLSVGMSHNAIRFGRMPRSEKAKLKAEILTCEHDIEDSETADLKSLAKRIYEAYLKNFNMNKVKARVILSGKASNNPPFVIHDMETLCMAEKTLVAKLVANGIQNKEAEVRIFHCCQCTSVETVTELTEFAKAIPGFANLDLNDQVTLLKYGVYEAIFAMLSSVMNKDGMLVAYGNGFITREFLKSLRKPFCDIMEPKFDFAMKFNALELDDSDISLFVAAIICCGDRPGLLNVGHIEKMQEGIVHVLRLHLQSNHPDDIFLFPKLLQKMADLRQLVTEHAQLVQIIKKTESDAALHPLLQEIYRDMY

Rattus norvegicus [5] = experiment: Antidiabetic activity against STZ induced Albino Wistar rat diabetic model assessed as hypoglycaemic effect at 36 mg/kg, po administered as single dose and measured after 15 days; type: functional; details: time 15 day
Rattus norvegicus [6] = experiment: Antidiabetic activity against NA-STZ induced Wistar rat model of type 2 diabetes assessed as decrease in blood glucose level at 36 mg/kg, po measured after 21 days relative to control; type: functional; design: scale not given: the % may be the effect or the level left; details: time 21 day
Rattus norvegicus [7] = experiment: Antidiabetic activity against NA-STZ induced Wistar rat model of type 2 diabetes assessed as increase in C-peptide level at 36 mg/kg, po measured after 21 days by ELISA method relative to control; type: functional; details: time 21 day

SMILES	EC50 [1]	Activity [2]	EC50 [3]	EC50 [4]	Activity (Rattus norvegicus [5])	Activity (Rattus norvegicus [6])	Activity (Rattus norvegicus [7])
COc1cc(/C=C2\SC(Nc3ccc(S(N)(=O)=O)cc3)=NC2=O)ccc1OCCc1ccccc1	16.3 µM	Toxic	11.1 µM				
COc1cc(/C=C2\SC(Nc3ccc(S(N)(=O)=O)cc3)=NC2=O)ccc1OCc1ccc(C)cc1	48.1 µM	Toxic		40.9 µM			
COc1cccc(COc2cc(/C=C3\SC(Nc4ccc(S(N)(=O)=O)cc4)=NC3=O)ccc2OC)c1		Non-Toxic	2.94 µM	22.7 µM			
COc1cccc(COc2ccc(/C=C3\SC(Nc4ccc(S(N)(=O)=O)cc4)=NC3=O)cc2OC)c1	15.4 µM	Non-Toxic	3.98 µM				
NS(=O)(=O)c1ccc(NC2=NC(=O)/C(=C/c3ccc(OCc4ccc(Cl)cc4)cc3)S2)cc1	35.2 µM	Toxic					
NS(=O)(=O)c1ccc(-n2cc(/C=C3\SC(=O)NC3=O)c(-c3ccc4ccccc4c3)n2)cc1					134.1 mg/dL		
CC(C)(Oc1ccc(CCNC(=O)c2ccc(Cl)cc2)cc1)C(=O)O [BEZAFIBRATE]	25.9 µM		83.3 µM				
CCc1ccc(CCOc2ccc(CC3SC(=O)NC3=O)cc2)nc1 (stereo not given) [PIOGLITAZONE]					132.2 mg/dL	35%	38.6%
